Source: patent publication US20130029991A1, “New Phenylsulfamoyl Benzamide Derivatives as Bradykinin Antagonists” (priority 2006, published 2013)

Key:
[1] = target: T1, human recombinant bradykinin B1 receptor (Homo sapiens, UniProt P46663); assay: Human recombinant bradykinin B1 receptor binding; conditions: reference compounds, binding test; read-out: Ki
T1 construct: host or cells: CHO cells
T1 sequence (P46663 1-353): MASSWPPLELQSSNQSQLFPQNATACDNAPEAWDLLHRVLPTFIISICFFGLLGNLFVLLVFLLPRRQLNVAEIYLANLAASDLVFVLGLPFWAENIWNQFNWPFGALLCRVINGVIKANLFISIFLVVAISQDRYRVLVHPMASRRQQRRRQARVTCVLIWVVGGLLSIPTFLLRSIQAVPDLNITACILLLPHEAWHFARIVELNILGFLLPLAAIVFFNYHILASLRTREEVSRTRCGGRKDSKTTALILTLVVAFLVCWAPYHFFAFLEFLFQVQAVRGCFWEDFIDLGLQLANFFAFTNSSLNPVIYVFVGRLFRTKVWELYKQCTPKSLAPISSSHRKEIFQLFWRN
Protocol: 1. Human Recombinant Bradykinin B1 Receptor Binding
Binding assays were carried out on human recombinant bradykinin) receptors (expressed in CHO cells) according to the Euroscreen Technical Data Sheet (Cat.No.:ES-091). 20 μg protein/tube was incubated with [3,4-prolyl-3,4-^3H(N)]-[Des-Arg^10] Kallidin as radioligand. Non specific binding was determined in the presence of 10 μM Lys-des-Arg^9-Bradykinin. The final incubation volume was 250 μl. Samples were incubated for 15 min. at 25° C. then were rapidly vacuum filtered through GF/B filters presoaked for at least 1 h in 0.5% PEI. Radioactivity was determined by liquid scintillation spectroscopy.

[2] = target: T2, recombinant human B1 receptors (Homo sapiens, UniProt P46663); assay: Functional assay: antagonist potency by cytosolic calcium measurement (fluo-4, plate reader fluorimeter) in CHO-B1 cells; format: cell-based; conditions: reference compounds, functional test; read-out: IC50
T2 construct: host or cells: CHO (CHO-B1)
T2 sequence (P46663 1-353): T1 sequence (P46663 1-353)
Protocol: Assessment of Antagonist Potency at B1 and B2 Receptors In Vitro by Measurement of Cytosolic Calcium Ion Concentration with a Plate Reader Fluorimeter in Cells Expressing Recombinant Human B1 or B2 Receptors
Chinese hamster ovary (CHO) cells stably expressing recombinant human B1 (CHO-B1, Euroscreen) or B2 (CHO-B2, Perkin-Elmer) receptors were cultured in Dulbecco's Modified Eagle's Medium (DMEM) containing 10% Fetal Calf Serum (FCS), 100 U/ml penicillin, 0.1 mg/ml streptomycin, 0.25 μg/ml amphotericin B, 1% Minimum Essential Medium Eagle (MEM), non essential amino acid solution, […], 1% pyruvate (for the B2 cell line). Cells were kept at 37° C. in a humidified incubator in an atmosphere of 5% CO2/95% air and were passaged 1:4 three times a week. Cells were plated at 1.5-2.5×10^4 cell/well on standard 96-well microplates, measurements of cytosolic calcium ion concentration ([Ca^2+]i) were carried out 1-2 days after cell plating.
Measurements of [Ca^2+]i were carried out on CHO-B1 and CHO-B2 cells stably expressing human B1 and B2 receptors, respectively. Cells were grown in standard 96-well microplates and before the measurement were loaded with a fluorescent Ca^2+-sensitive dye, fluo-4/AM (2 μM): after removing the culture medium the dye was added to the cells (dissolved in assay buffer: 145 mM NaCl, 5 mM KCl, 2 mM MgCl2, 2 mM CaCl2, 10 mM HEPES, 20 mM D-glucose, 2 mM probenecid, 100 μl/well) and cells were incubated at 37° C. in a humidified incubator in an atmosphere of 5% CO2/95% air for 40-120 min. To stop dye loading cells were washed twice with assay buffer. After washing, various concentrations of the test compounds (diluted in extracellular medium from a DMSO stock solution, final DMSO concentration was <0.1%) or buffer were added to each well depending on the experimental setup. After incubation at 37° C. for 20-25 min. baseline and agonist-evoked changes of [Ca^2+]i were measured column by column with a plate reader fluorimeter (Fluoroskan Ascent, Labsystems). Excitation and detection of emission was carried out from the bottom of the plate. Filters used for Fluo-4: excitation filter—485 nm, emission filter—538 nm. The whole measurement process was performed at 37° C. and was controlled by custom software Inhibitory potency of the test compounds was assessed by measuring the reduction in the agonist-evoked [Ca^2+]i-elevation in the presence of different concentrations of the compounds. The agonists were LysDABK for CHO-B1, and bradykinin for CHO-B2 cells. Agonists were applied at an EC80 concentration, the EC80-values were derived from daily determined dose-response curves. Fluorescence data were expressed as ΔF/F (fluorescence change normalized to baseline). All treatments on a single plate were measured in multiple wells. Data from all wells with the same treatment were averaged and the average values were used for analysis. Inhibitory potency of a compound at a single concentration point was expressed as percent inhibition of the control agonist response. Sigmoidal concentration-inhibition curves were fitted to the data (derived from at least three independent experiments) and IC50-values were determined as the concentration that produces half of the maximal inhibition caused by the compound.

SMILES: CCCN1C(=O)[C@H](NC(=O)Nc2ccc(N3CCC(N4CCCCC4)CC3)cc2)N=C(c2ccc(C)cc2)c2ccccc21 [N-[4-(,4′-bipiperidin)-1′-ylphenyl]-N′-[(3R)-2,3-dihydro-5-(4-methyl-phenyl)-2-oxo-1-propyl-1H-1,4-benzodiazepin-3-yl]-urea, reference compound]
- Ki [1]: 13.4 nM
- IC50 [2]: 64.5 nM
